Source: ChEMBL document CHEMBL2385025, “Detour of prenostodione synthesis towards pyrazolones for antibacterial activity” (2013)

Experiments:
[1] = tested on: Staphylococcus aureus; assay: Growth inhibition of Staphylococcus aureus MRSA 1094 at 50 uM relative to control; conditions: read-out: GI
[2] = tested on: Staphylococcus aureus; assay: Growth inhibition of Staphylococcus aureus ATCC 35556 at 50 uM relative to control; assay type: functional; conditions: read-out: GI
[3] = tested on: Staphylococcus aureus; assay: Inhibition of biofilm formation of Staphylococcus aureus MRSA 1094 at 50 uM by crystal violet staining-based spectrophotometric analysis relative to control
[4] = tested on: Staphylococcus aureus; assay: Growth inhibition of methicillin-sensitive Staphylococcus aureus at 50 uM relative to control; assay type: functional; conditions: read-out: GI
[5] = tested on: Pseudomonas aeruginosa; assay: Inhibition of biofilm formation of Pseudomonas aeruginosa PAO1 at 50 uM by crystal violet staining-based spectrophotometric analysis relative to control; assay type: functional
[6] = tested on: Staphylococcus aureus; assay: Inhibition of biofilm formation of methicillin-sensitive Staphylococcus aureus at 50 uM by crystal violet staining-based spectrophotometric analysis relative to control; assay type: functional
[7] = tested on: Staphylococcus epidermidis; assay: Inhibition of biofilm formation of Staphylococcus epidermidis 1457 at 50 uM by crystal violet staining-based spectrophotometric analysis relative to control; assay type: functional
[8] = tested on: Staphylococcus epidermidis; assay: Growth inhibition of Staphylococcus epidermidis 1457 at 50 uM relative to control; assay type: functional; conditions: read-out: GI
[9] = tested on: Staphylococcus epidermidis; assay: Inhibition of biofilm formation of Staphylococcus epidermidis GTC 18972 at 50 uM by crystal violet staining-based spectrophotometric analysis relative to control; assay type: functional
[10] = tested on: Pseudomonas aeruginosa; assay: Growth inhibition of Pseudomonas aeruginosa PAO1 at 50 uM relative to control; assay type: functional; conditions: read-out: GI
[11] = tested on: Staphylococcus epidermidis; assay: Growth inhibition of Staphylococcus epidermidis GTC 18972 at 50 uM relative to control; assay type: functional; conditions: read-out: GI
[12] = tested on: Staphylococcus aureus; assay: Inhibition of biofilm formation of Staphylococcus aureus ATCC 35556 at 50 uM by crystal violet staining-based spectrophotometric analysis relative to control; assay type: functional

| SMILES | inhibition of growth at 50 µM [1] [%] | inhibition of growth at 50 µM [2] [%] | inhibition at 50 µM [3] [%] | inhibition of growth at 50 µM [4] [%] | inhibition at 50 µM [5] [%] | inhibition at 50 µM [6] [%] | inhibition at 50 µM [7] [%] | inhibition of growth at 50 µM [8] [%] | inhibition at 50 µM [9] [%] | inhibition of growth at 50 µM [10] [%] | inhibition of growth at 50 µM [11] [%] | inhibition at 50 µM [12] [%] |
| --- | --- | --- | --- | --- | --- | --- | --- | --- | --- | --- | --- | --- |
| COC(=O)CC1=NN(c2ccccc2)C(=O)/C1=C\c1ccc(O)cc1 | 7.95 | -7.76 | -7.01 | -5.33 | -5.96 | 9.96 | 3.69 | 15 | 2.6 | 14.1 | 30.2 | -0.723 |
| COC(=O)CC1=NN(c2ccccc2)C(=O)/C1=C\c1c[nH]c2ccccc12 | 0.914 | -19.7 | -126 | -19.4 | -38.5 | 8.02 | 47.7 | -7.59 | 54.5 | -10.8 | -2.37 | 62 |
| COC(=O)CC1=NN(c2ccccc2)C(=O)/C1=C\c1ccco1 | 20.4 | -15.4 | -167 | -5.33 | 13.9 | -15.6 | 9.86 | 13.9 | 12.1 | -14.8 | 25.9 | 6.49 |
| CCOc1ccc(/C=C2\C(=O)N(c3ccccc3)N=C2CC(=O)OC)cc1OC | 2.81 | -2.46 | 15.2 | -0.402 | -5.61 | 57.8 | -1.83 | 4.08 | 15.6 | -1.25 | 22 | 34 |
| COC(=O)CC1=NN(c2ccccc2)C(=O)/C1=C\c1ccc(OC)cc1OC | -0.169 | -5.55 | 37.6 | -6.08 | -31.1 | -61.9 | -0.983 | -1.75 | -5.55 | -3.78 | 20.5 | 1.53 |
| COC(=O)CC1=NN(c2ccccc2)C(=O)/C1=C\c1cc(OC)c(OC)c(OC)c1 | 20.9 | -3.34 | 2.88 | 1.49 | 11 | 19.8 | 10.6 | 15.8 | 12.8 | -0.864 | 33.8 | 31.2 |
| COC(=O)CC1=NN(c2ccccc2)C(=O)/C1=C\c1ccccc1Br | 53.5 | -6.96 | 87.9 | 8.69 | -22.9 | 46.5 | 50.8 | 32.4 | 82.6 | 9.21 | 55 | 65.8 |
| COC(=O)CC1=NN(c2ccccc2)C(=O)/C1=C\c1ccsc1 | 15 | -17.5 | -23.8 | -3.06 | -4.41 | -5.79 | 2.03 | 14.3 | 10.8 | 10.8 | 33.8 | 0.355 |
| COC(=O)CC1=NN(c2ccccc2)C(=O)/C1=C\c1ccc(N(C)C)cc1 | 11.5 | -18.4 | 35.9 | -11.4 | -79.8 | -27.3 | 1.24 | 9.19 | 3.75 | 2.45 | 27.7 | 9.7 |
| COC(=O)CC1=NN(c2ccccc2)C(=O)/C1=C\c1ccc(Cl)cc1 | 38 | 10.3 | 21.5 | 21.9 | 9.68 | 86.7 | 6.08 | 23.1 | 20.4 | -5.15 | 32.4 | 88.1 |
